Assay results as given in ChEMBL document CHEMBL1127126, “Conformationally restricted analogs of CP-99,994: synthesis of a spirocyclic amine” (Bioorg Med Chem Lett, 1993).
pIC50: −log10 of the molar value.

Biological target: Substance-P receptor (Homo sapiens, UniProt P25103)
Assay: Tested for inhibitory activity against substance P receptor.

Chain of Substance-P receptor (P25103 whole entry): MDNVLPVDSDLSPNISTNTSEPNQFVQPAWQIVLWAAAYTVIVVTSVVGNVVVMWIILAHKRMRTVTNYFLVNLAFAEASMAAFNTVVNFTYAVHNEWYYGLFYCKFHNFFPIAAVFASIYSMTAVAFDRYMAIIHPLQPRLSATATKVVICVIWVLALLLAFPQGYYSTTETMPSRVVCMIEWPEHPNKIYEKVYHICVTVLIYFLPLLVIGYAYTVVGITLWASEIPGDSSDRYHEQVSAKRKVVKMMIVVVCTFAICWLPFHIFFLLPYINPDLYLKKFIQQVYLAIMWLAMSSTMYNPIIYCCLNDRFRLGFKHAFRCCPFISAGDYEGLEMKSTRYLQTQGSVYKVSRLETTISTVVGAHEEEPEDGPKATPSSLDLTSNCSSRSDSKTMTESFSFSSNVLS

With `c1ccc([C@H]2NCCC[C@]23CC[C@H](c2ccccc2)N3)cc1` the pIC50 was < 6.00.
